We go through 23 molecules from patent publication US10059655B2, “Lipids and lipid compositions for the delivery of active agents” (priority 2013, dated 2018).

The series can be described thus: Measurement of mRNA encapsulation in lipid nanoparticles (Quant-iT Ribogreen). The class given is physicochemical. The note with it: Leptin mRNA in LNP. The protocol:
All equipment and disposable supplies are certified free of RNase activity by the manufacturer or rendered RNase free by use of the RNaseZap reagent (LifeTechnologies). mRNA is encapsulated at a cationic lipid amine to mRNA phosphate (N:P) molar ratio of 4:1. Lipids (cationic lipid, DSPC, cholesterol and lipidated PEG or stealth lipid) are dissolved in ethanol. The molar ratios are 40:10:38:2, respectively. The mixture is sonicated briefly, then gently agitated for 5 minutes and then maintained at 37° C. until use. mRNA is exchanged into citrate buffer pH 5.8-6.0 by use of Amicon Ultra-15 centrifugal concentrators, and the final concentration is adjusted to 0.5 mg/ml and held at 37° C. until use. An equal volume of lipids in ethanol, mRNA in citrate buffer, and citrate buffer alone are drawn into disposable syringes.
Tubing leading from syringes containing lipids and mRNA are attached to the T junction, and tubing leading from the syringe containing citrate buffer alone is paired with the tubing exiting the T-junction over a collection vessel containing a stir bar on an active stir plate. Syringes are placed in a syringe pump set to expel contents at a flow rate of 1 ml per minute. The pump is activated, and the collected mRNA in lipid nanoparticles is transferred to SnakeSkin dialysis tubing (10,000 MWCO, Thermo Scientific). Material is dialyzed against RNAse- and pyrogen-free 1× phosphate buffered saline overnight at 4° C.
Percent encapsulation of mRNA in lipid nanoparticles is determined using the Quant-iT Ribogreen RNA Assay kit (Life Technologies). The LNP-mRNA suspension is assayed in buffer (mRNA outside the particle), and buffer plus Triton X-100 detergent (total mRNA). The difference calculated is the mRNA inside the particle. Prepare a 1000 ng/mL stock from the RNA provided in the kit and use this to generate a standard curve (0 ng/ml, 15.63-1000 ng/ml) in TE and TE+0.75% Triton X-100. Prepare LNP-mRNA samples in TE buffer and TE buffer+0.75% Triton X-100 with appropriate dilution so that reading is in the range of standard curve (400-2,000 fold). In a 384-well plate (Costar non-treated #3573) add 0.04 ml of standard (in duplicate) or sample (in triplicate) per well. Dilute Ribogreen reagent 240-fold in TE buffer and add 0.06 ml per well. Mix contents of wells and measure fluorescence (excitation=480 nm, emission=520 nm). Subtract background values (no RNA) from standard and test sample values and determine the concentrations of RNA in the samples using the standard curves. Determine the percent encapsulation of the sample by dividing the difference in concentrations between sample+triton and sample in buffer alone by the sample+triton concentration.
Turning to `CCCCCCCCOC(CCC(=O)OCC(COC(=O)CCC(OCCCCCCCC)OCCCCCCCC)COC(=O)CCN(C)C)OCCCCCCCC` [Example 59, 2-(((3-(dimethylamino)propanoyl)oxy)methyl)propane-1,3-diyl bis(4,4-bis(octyloxy)butanoate)], the “% encapsulation mRNA Leptin” value is listed as 76.6%.
For `CCCCCCCCCCCCC(CCOC(=O)OCC(COC(=O)CCCCCCC(=O)OC)COC(=O)CCC(OCCCCCCCC)OCCCCCCCC)OC(=O)OCCCN(C)C` (centres unmarked) [Example 70, 1-(16-(((4,4-bis(octyloxy)butanoyl)oxy)methyl)-9-dodecyl-2-methyl-7,13-dioxo-6,8,12,14-tetraoxa-2-azaheptadecan-17-yl) 8-methyl octanedioate], the “% encapsulation mRNA Leptin” value was found to be 92.1%.
With `CCCCCCCCOC(=O)CCCCCCCCC(=O)OCC(COC(=O)CCCCC(OCC(CCC)CCC)OCC(CCC)CCC)COC(=O)C1(C)CCN(C)CC1` (centres unmarked) [Example 71, 1-(3-((6,6-bis((2-propylpentyl)oxy)hexanoyl)oxy)-2-(((1,4-dimethylpiperidine-4-carbonyl)oxy)methyl)propyl) 10-octyl decanedioate] the figure was 96.5%; with `CCCCC/C=C\C/C=C\CCCCCCCC(=O)OCC(COC(=O)CCC(OCCCCCCCC)OCCCCCCCC)COC(=O)OC1CCN(CC)CC1` (centres unmarked) [Example 50, (9Z,12Z)-3-((4,4-bis(octyloxy)butanoyl)oxy)-2-(((((1-ethylpiperidin-4-yl)oxy)carbonyl)oxy)methyl)propyl octadeca-9,12-dienoate], 83.9%; with `CCCCC/C=C\C/C=C\CCCCCCCC(=O)OCC(COC(=O)CCC(OCCCCCCCC)OCCCCCCCC)COC(=O)C1CN(C)CCO1` (centres unmarked) [Example 39, 3-((4,4-bis(octyloxy)butanoyl)oxy)-2-(((9Z,12Z)-octadeca-9,12-dienoyloxy)methyl)propyl 4-methylmorpholine-2-carboxylate], 10.0%.
To `CCCCC/C=C\C/C=C\CCCCCCCC(=O)OCC(COC(=O)CCCCCC(CCCCCC)CCCCCC)COC(=O)OCCCN(CC)CC` (centres unmarked) [Example 23, (9Z,12Z)-3-(((3-(diethylamino)propoxy)carbonyl)oxy)-2-(((7-hexyltridecanoyl)oxy)methyl)propyl octadeca-9,12-dienoate] belongs 82.0%.
Regarding `CCCCC/C=C\C/C=C\CCCCCCCC(=O)OCC(COC(=O)CCCCCCC/C=C\C/C=C\CCCCC)COC(=O)CCCN1CCCC1` [Example 3, (9Z,9′Z,12Z,12′Z)-2-(((4-(pyrrolidin-1-yl)butanoyl)oxy)methyl)propane-1,3-diyl bis(octadeca-9,12-dienoate)], the “% encapsulation mRNA Leptin” value is 32.5%.
Take `CCCCC/C=C\C/C=C\CCCCCCCC(=O)OCC(COC(=O)CCC(OCCCCCCCC)OCCCCCCCC)COC(=O)OCCCN1CCCC1` (centres unmarked) [Example 45, (9Z,12Z)-3-((4,4-bis(octyloxy)butanoyl)oxy)-2-((((3-(pyrrolidin-1-yl)propoxy)carbonyl)oxy)methyl)propyl octadeca-9,12-dienoate]: the “% encapsulation mRNA Leptin” value came out at 84.4%.
Consider `CCCCCCCCOC(CCC(=O)OCC(COC(=O)CCC(OCCCCCCCC)OCCCCCCCC)COC(=O)C1(C)CCN(C)C1)OCCCCCCCC` (centres unmarked) [Example 58, 2-(((1,3-dimethylpyrrolidine-3-carbonyl)oxy)methyl)propane-1,3-diyl bis(4,4-bis(octyloxy)butanoate)], for which the “% encapsulation mRNA Leptin” value turned out to be 86.0%.
As to `CCCCC/C=C\C/C=C\CCCCCCCC(=O)OCC(COC(=O)CCC(OCCCCCCCC)OCCCCCCCC)COC(=O)C1CCCN(C)C1` (centres unmarked) [Example 42, 3-((4,4-bis(octyloxy)butanoyl)oxy)-2-(((9Z,12Z)-octadeca-9,12-dienoyloxy)methyl)propyl 1-methylpiperidine-3-carboxylate], the “% encapsulation mRNA Leptin” value is recorded as 90.3%.
Regarding `CCCCC/C=C\C/C=C\CCCCCCCC(=O)OCC(COC(=O)CCCCCCC/C=C\C/C=C\CCCCC)COC(=O)CCN1CCOCC1` [Example 10, (9Z,9′Z,12Z,12′Z)-2-(((3-morpholinopropanoyl)oxy)methyl)propane-1,3-diyl bis(octadeca-9,12-dienoate)], the “% encapsulation mRNA Leptin” value is listed as 1.9%.
With `CCCCCCCCOC(=O)CCCCCCCCC(=O)OCC(COC(=O)CCC(OCCCCCCCC)OCCCCCCCC)COC(=O)C1CCN(C)C1` (centres unmarked) [Example 69, 1-(3-((4,4-bis(octyloxy)butanoyl)oxy)-2-(((1-methylpyrrolidine-3-carbonyl)oxy)methyl)propyl) 10-octyl decanedioate] the figure was 79.3%; with `CCCCC/C=C\C/C=C\CCCCCCCC(=O)OCC(COC(=O)CCC(OCCCCCCCC)OCCCCCCCC)COC(=O)C1CCN(C)CC1` (centres unmarked) [Example 41, 3-((4,4-bis(octyloxy)butanoyl)oxy)-2-(((9Z,12Z)-octadeca-9,12-dienoyloxy)methyl)propyl 1-methylpiperidine-4-carboxylate], 97.5%; with `CCCCCCCCCCCCCC(=O)OCC(COC(=O)CCCCC(COC(=O)CCCCCCC)COC(=O)CCCCCCC)COC(=O)C1CCN(C)C1` (centres unmarked) [Example 64, 2-(5-(3-((1-methylpyrrolidine-3-carbonyl)oxy)-2-((tetradecanoyloxy)methyl)propoxy)-5-oxopentyl)propane-1,3-diyl dioctanoate], 87.9%.
Regarding `CCCCC/C=C\C/C=C\CCCCCCCC(=O)OCC(COC(=O)CCC(OCCCCCCCC)OCCCCCCCC)COC(=O)c1ccc(CN(CC)CC)cc1` (centres unmarked) [Example 44, 3-((4,4-bis(octyloxy)butanoyl)oxy)-2-(((9Z,12Z)-octadeca-9,12-dienoyloxy)methyl)propyl 4-((diethylamino)methyl)benzoate], the “% encapsulation mRNA Leptin” value was 22.4%.
With `CCCCC/C=C\C/C=C\CCCCCCCC(=O)OCC(COC(=O)CCC(OCCCCCCCC)OCCCCCCCC)COC(=O)OC1CC(C)(C)N(C)C(C)(C)C1` (centres unmarked) [Example 52, (9Z,12Z)-3-((4,4-bis(octyloxy)butanoyl)oxy)-2-(((((1,2,2,6,6-pentamethylpiperidin-4-yl)oxy)carbonyl)oxy)methyl)propyl octadeca-9,12-dienoate] the figure was 32.2%; with `CCCCCCCCOC(CCC(=O)OCC(COC(=O)CCC(OCCCCCCCC)OCCCCCCCC)COC(=O)C1CCN(C)C1)OCCCCCCCC` (centres unmarked) [Example 57, 2-(((1-methylpyrrolidine-3-carbonyl)oxy)methyl)propane-1,3-diyl bis(4,4-bis(octyloxy)butanoate)], 95.2%.
Consider `CCCCCCCCCCCCCC(=O)OCC(COC(=O)CCC(OCCCCCCCC)OCCCCCCCC)COC(=O)C1CCN(C)C1` (centres unmarked) [Example 66, 3-((4,4-bis(octyloxy)butanoyl)oxy)-2-((tetradecanoyloxy)methyl)propyl 1-methylpyrrolidine-3-carboxylate], for which the “% encapsulation mRNA Leptin” value is on record as 70.5%.
To `CCCCC/C=C\C/C=C\CCCCCCCC(=O)OCC(COC(=O)CCC(OCCCCCCCC)OCCCCCCCC)COC(=O)OC1CN(C)C1` (centres unmarked) [Example 49, (9Z,12Z)-3-((4,4-bis(octyloxy)butanoyl)oxy)-2-(((((1-methylazetidin-3-yl)oxy)carbonyl)oxy)methyl)propyl octadeca-9,12-dienoate] belongs 82.8%; to `CCCCCCCCOC(CCCCC(=O)OCC(COC(=O)CCCCC(OCCCCCCCC)OCCCCCCCC)COC(=O)C1CCN(C)C1)OCCCCCCCC` (centres unmarked) [Example 60, 2-(((1-methylpyrrolidine-3-carbonyl)oxy)methyl)propane-1,3-diyl bis(6,6-bis(octyloxy)hexanoate)], 89.1%.
Turning to `CCCCC/C=C\C/C=C\CCCCCCCC(=O)OCC(COC(=O)CCC(OCCCCCCCC)OCCCCCCCC)COC(=O)[C@H]1CCCN1C` (stereo partly drawn) [Example 38, (2R)-3-((4,4-bis(octyloxy)butanoyl)oxy)-2-(((9Z,12Z)-octadeca-9,12-dienoyloxy)methyl)propyl 1-methylpyrrolidine-2-carboxylate], the “% encapsulation mRNA Leptin” value is 9.6%.
`CCCCCCCCCCCCCCCC(=O)OCC(COC(=O)CCCCC(COC(=O)CCCCCCC)COC(=O)CCCCCCC)COC(=O)C1CCN(C)C1` (centres unmarked) [Example 63, 2-(5-(3-((1-methylpyrrolidine-3-carbonyl)oxy)-2-((palmitoyloxy)methyl)propoxy)-5-oxopentyl)propane-1,3-diyl dioctanoate]: the “% encapsulation mRNA Leptin” value worked out at 18.8%.
As to `CCCCC/C=C\C/C=C\CCCCCCCC(=O)OCC(COC(=O)CCCCC(OCCCCCCCC)OCCCCCCCC)COC(=O)OCCCN(CC)CC` (centres unmarked) [Example 27, (9Z,12Z)-3-((6,6-bis(octyloxy)hexanoyl)oxy)-2-((((3-(diethylamino)propoxy)carbonyl)oxy)methyl)propyl octadeca-9,12-dienoate], the “% encapsulation mRNA Leptin” value turned out to be 80.8%.
